# Values quoted from earlier work as cited in patent US20030003095A1, “Activated carbon for preventing pregnancy and sexually transmitted disease” (The Procter & Gamble Company, priority 2002, published 2003).
# Settings: stated in words, no test described
row,Compound,water solubility
1,Oc1cc(Cl)ccc1Oc1ccc(Cl)cc1Cl [triclosan],water insoluble
2,N=C(NCCCCCCNC(=N)NC(=N)Nc1ccc(Cl)cc1)NC(=N)Nc1ccc(Cl)cc1.O=C(O)[C@H](O)[C@@H](O)[C@H](O)[C@H](O)CO.O=C(O)[C@H](O)[C@@H](O)[C@H](O)[C@H](O)CO [chlorhexidene digluconate],water-soluble
3,nonoxynol-9,slightly water soluble
